Data on four compounds can be found in ChEMBL document CHEMBL1151523, “Synthesis of ()-6-(3-aminopropyloxy)methyl-4-demethoxy-6, 7-dideoxy-daunomycinone, a new dna intercalator related to anthracyclines” (Bioorg Med Chem Lett, 1995).

Common to all, as to format: nucleic-acid assay, Bos taurus
Assay [1] deals with Nucleic Acid. In words: Binding affinity to Calf thymus DNA type XV; value ranges from 1E4 - 3E4 M-1.
Assay [2] concerns Nucleic Acid. In words: Binding affinity to Calf thymus DNA type XV; value ranges from 4E6 - 6E6 M-1.
For assay [3], the system named is Nucleic Acid. In words: Binding affinity to Calf thymus DNA type XV; value ranges from 2E6 - 4E6 M-1.
Assay [4] relates to Nucleic Acid. In words: Binding affinity to Calf thymus DNA type XV.

In the assay on Nucleic Acid [1], `COc1cccc2c1C(=O)c1c(O)c3c(c(O)c1C2=O)C[C@@](O)(C(C)=O)C[C@@H]3O` [DAUNOMYCINONE] yielded a Ka of 10000 M⁻¹.

In the assay on Nucleic Acid [2], `COc1cccc2c1C(=O)c1c(O)c3c(c(O)c1C2=O)C[C@@](O)(C(C)=O)C[C@@H]3O[C@H]1C[C@H](N)[C@H](O)[C@H](C)O1.Cl` [DAUNORUBICIN HYDROCHLORIDE] had a Ka of 4000000 M⁻¹.

`COc1cccc2c1C(=O)c1c(O)c3c(c(O)c1C2=O)C[C@@](O)(C(=O)CO)C[C@@H]3O[C@H]1C[C@H](N)[C@H](O)[C@H](C)O1` [DOXORUBICIN] returned a Ka in the assay with Nucleic Acid [3] of 2000000 M⁻¹.

As for `CC(=O)[C@@]1(O)CCc2c(c(O)c3c(c2COCCCN)C(=O)c2ccccc2C3=O)C1.Cl`, the Ka with Nucleic Acid [4] was determined as 61000 M⁻¹.
